From BindingDB's records for doi:10.7270/Q20K28JQ (Dupont Pharmaceuticals, 1996)
pIC50: −log10 of the molar value.

Molecular target: T1, Sterol O-acyltransferase 1 (Rattus norvegicus, UniProt O70536)
T1 sequence (O70536 whole entry): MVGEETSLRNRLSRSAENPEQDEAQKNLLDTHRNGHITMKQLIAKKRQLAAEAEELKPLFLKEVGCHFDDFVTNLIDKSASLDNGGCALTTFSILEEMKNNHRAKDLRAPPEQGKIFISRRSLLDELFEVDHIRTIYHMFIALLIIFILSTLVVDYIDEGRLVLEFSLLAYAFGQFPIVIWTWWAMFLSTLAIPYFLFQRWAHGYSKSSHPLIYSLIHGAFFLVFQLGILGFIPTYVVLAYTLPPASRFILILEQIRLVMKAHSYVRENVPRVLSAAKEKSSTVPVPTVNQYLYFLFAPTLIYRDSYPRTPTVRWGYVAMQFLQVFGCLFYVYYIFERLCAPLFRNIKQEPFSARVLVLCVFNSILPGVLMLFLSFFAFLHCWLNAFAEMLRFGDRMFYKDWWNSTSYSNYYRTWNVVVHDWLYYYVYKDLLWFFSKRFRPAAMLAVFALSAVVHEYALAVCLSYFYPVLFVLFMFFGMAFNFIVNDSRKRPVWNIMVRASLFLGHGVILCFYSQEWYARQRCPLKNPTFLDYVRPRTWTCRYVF
Experiment: ChEBML_28359
Description: In vitro inhibition of rat liver microsomal Acyl coenzyme A:cholesterol acyltransferase

pIC50	SMILES
5.72	CN(C(=O)c1ccc(C#N)cc1)C1N(C)C(c2ccc(C#N)cc2)=NC1(C(F)(F)F)C(F)(F)F (stereo not drawn)
6.00	CN(C(=O)c1ccc(C#N)cc1)[C@H]1N(C)C(c2ccc(C#N)cc2)=NC1(C(F)(F)F)C(F)(F)F
4.26	CN(C(=O)c1ccc(C#N)cc1)[C@@H]1N(C)C(c2ccc(C#N)cc2)=NC1(C(F)(F)F)C(F)(F)F
